molecular target: T1, NS3 (West Nile virus) (UniProt K4FQI5); assay: (§1) Functional biochemical assay to identify treatments for viral infectious disease that targets West Nile NS2B-NS3 protease. Utilizing a direct enzyme activity measurement method, reading the fluorescence intensity is used to characterize the relative potency of inhibitors as % inhibition. Synthetic construct has been made based on West Nile virus (strain NY-99) by Centre for Medicines Discovery, University of Oxford, and the assay has been performed by Weizmann Institute of Science.The protocol is publicly available: dx.doi.org/10.17504/protocols.io.q26g7yebkgwz/v3; conditions: Concentration 50.0 uM, Number of replicates 2.0, Standard deviation 2.0262748168953313 %
T1 sequence (whole entry): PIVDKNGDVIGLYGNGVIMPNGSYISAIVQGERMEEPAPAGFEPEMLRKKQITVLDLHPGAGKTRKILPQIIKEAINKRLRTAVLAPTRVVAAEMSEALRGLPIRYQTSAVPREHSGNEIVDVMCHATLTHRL

Which inhibition does the source give for `N=C(N)NCCC[C@H](NC(=O)c1nccs1)C(=O)N[C@@H](CCCCN)C(=O)N[C@@H](C(N)=O)c1ccc(OCc2ccc(C(F)(F)F)cc2)cc1` here?
Its inhibition is 80.2%.

same assay, conditions: Concentration 50.0 uM, Number of replicates 2.0, Standard deviation 6.952329816266579 %

Which inhibition does the source give for `O=C1c2c(O)ccc([N+](=O)[O-])c2C(=O)c2c([N+](=O)[O-])ccc(O)c21` here?
Its inhibition is 4.86%.

same assay, conditions: Concentration 100.0 uM, Number of replicates 2.0, Standard deviation 1.865400633304037 %

How did the inhibition turn out when `O=C1c2c(O)ccc([N+](=O)[O-])c2C(=O)c2c([N+](=O)[O-])ccc(O)c21` was run?
Its inhibition is 22.8%.

same assay, conditions: Concentration 100.0 uM, Number of replicates 2.0, Standard deviation 12.945380917885936 %

For `N=C(N)NCCC[C@H](NC(=O)c1nccs1)C(=O)N[C@@H](CCCCN)C(=O)N[C@@H](C(N)=O)c1ccc(OCc2ccc(C(F)(F)F)cc2)cc1`, which inhibition is on record?
Its inhibition is 119%.

molecular target: T1, NS3 (West Nile virus); assay: as §1, with “Stanford University.The” for “Weizmann Institute of Science.The”, “dx.doi.org/10.17504/protocols.io.ewov1dy37vr2/v1” for “dx.doi.org/10.17504/protocols.io.q26g7yebkgwz/v3”; conditions: Concentration 50.0 uM, Number of replicates 1.0

How did the inhibition turn out when `O=Cc1nc(-c2ccccc2Cl)n2ccccc12` was run?
Its inhibition is 41%.

How did the inhibition turn out when `O=Cc1ccc(N2CCC(C(=O)O)CC2)cc1` was run?
Its inhibition is 69.5%.

For `Cc1c(C=O)c2ccccn2c1C#N`, which inhibition is on record?
Its inhibition is 49.8%.

How did the inhibition turn out when `O=Cc1ccc(N2CCCCCC2)cc1` was run?
Its inhibition is 57%.

`CN(C)c1ccc(C=C(C#N)C(N)=O)cc1` was tested. Which inhibition did it give?
Its inhibition is 38.2%.

`Cc1cc(NS(=O)(=O)c2ccc(S(=O)(=O)F)cc2)c[nH]c1=O` was tested. Which inhibition did it give?
The inhibition was 14.8%.

With `O=Cc1ccc(N2CCCCC2)cc1` as the compound, how does the inhibition read?
The inhibition was 36.7%.

For `CC[C@H]1CO[C@H](C)CN1c1ccc(C=O)cn1`, which inhibition is on record?
Its inhibition is 61.8%.

With `Nc1ccc2ccc(B(O)O)cc2c1` as the compound, how does the inhibition read?
Its inhibition is -5.6%.

How did the inhibition turn out when `Cc1nc(C=O)c2ccccn12` was run?
Its inhibition is 33.8%.

How did the inhibition turn out when `Cc1c(C=O)c2ccccn2c1C(=O)c1ccncc1` was run?
The inhibition was 63.6%.

Which inhibition does the source give for `O=Cc1ccc(N2CCC(C(=O)O)CC2)o1` here?
Its inhibition is 65.4%.
